Laboratory results from patent US8759480B2, “Contoxin analogues and methods for synthesis of intramolecular dicarba bridge-containing peptides” (Syngene Limited, priority 2006, dated 2014).
Several values for one entry are separate records, joined by “and”; a condition that tells them apart may be missing. Identical values can stand only once.

Experiments:
[1] = tested on: neuronal-type nicotinic receptors; type: cell-based, bovine
[2] = tested on: neuronal-type nicotinic receptors; settings: cited from earlier work

SMILES: C[C@@H]1NC(=O)[C@@H]2CCCC[C@H](NC(=O)CN)C(=O)N[C@@H](CSSC[C@@H](C(N)=O)NC(=O)[C@H](CCCNC(=N)N)NC(=O)[C@H](Cc3cc4ccccc4[nH]3)NC1=O)C(=O)N[C@@H](CO)C(=O)N[C@@H](CC(=O)O)C(=O)N1CCCC1C(=O)N[C@@H](CCCNC(=N)N)C(=O)N2 (stereo partly drawn) [compound 118, [2,8]-Dicarba-[3,12]-Cystino Conotoxin ImI: NH2-Gly-c[Hag-Cys-Ser-Asp-Pro-Arg-Hag]-Ala-Trp-Arg-Cys)-NH2]
- Adrenaline Release 1st [1]: 2.94% and 2.55%
- Adrenaline Release 2nd [1]: 4.40% and 3.63%
- Adrenaline Release 3rd [1]: 4.46% and 2.62%
- Adrenaline Release 4th [1]: 4.09% and 3.31%
- Adrenaline Release % control [1]: 88.260% and 65.306%
- Adrenaline Release mean [1]: 3.97% and 3.03%
- Noradrenaline Release 1st [1]: 4.52% and 4.19%
- Noradrenaline Release 2nd [1]: 6.29% and 5.86%
- Noradrenaline Release 3rd [1]: 7.00% and 4.32%
- Noradrenaline Release 4th [1]: 7.34% and 5.51%
- Noradrenaline Release % control [1]: 90.859% and 69.384%
- Noradrenaline Release mean [1]: 6.29% and 4.97%

SMILES: C[C@@H]1NC(=O)[C@@H]2CSC3(SC[C@@H](C(N)=O)NC(=O)[C@H](CCCNC(=N)N)NC(=O)[C@H](Cc4cc5ccccc5[nH]4)NC1=O)SC[C@H](NC(=O)CN)C(=O)N[C@@H](CS3)C(=O)N[C@@H](CO)C(=O)N[C@@H](CC(=O)O)C(=O)N1CCCC1C(=O)N[C@@H](CCCNC(=N)N)C(=O)N2 (stereo partly drawn) [Ctx ImI, α-conotoxin ImI]
- effect on nicotine-stimulated release of adrenaline and noradrenaline (in words) [2]: inhibit the nicotine-stimulated release
